Measured values taken from patent US20100280082A1, “Metabotropic Glutamate Receptor Oxadiazole Ligands and Their Use as Potentiators” (AstraZeneca AB, priority 2007, published 2010).

Target: hERG ion channel (Homo sapiens, UniProt Q12809)
Assay: hERG activity (process of Bridgland-Taylor et al.)
Type: cell-based
Protocol: hERG activity was assessed using the process described by Bridgland-Taylor, M. H., et al, J. Pharm. Tox. Methods 54 (2006) 189-199.

Chain of hERG ion channel (Q12809 whole entry): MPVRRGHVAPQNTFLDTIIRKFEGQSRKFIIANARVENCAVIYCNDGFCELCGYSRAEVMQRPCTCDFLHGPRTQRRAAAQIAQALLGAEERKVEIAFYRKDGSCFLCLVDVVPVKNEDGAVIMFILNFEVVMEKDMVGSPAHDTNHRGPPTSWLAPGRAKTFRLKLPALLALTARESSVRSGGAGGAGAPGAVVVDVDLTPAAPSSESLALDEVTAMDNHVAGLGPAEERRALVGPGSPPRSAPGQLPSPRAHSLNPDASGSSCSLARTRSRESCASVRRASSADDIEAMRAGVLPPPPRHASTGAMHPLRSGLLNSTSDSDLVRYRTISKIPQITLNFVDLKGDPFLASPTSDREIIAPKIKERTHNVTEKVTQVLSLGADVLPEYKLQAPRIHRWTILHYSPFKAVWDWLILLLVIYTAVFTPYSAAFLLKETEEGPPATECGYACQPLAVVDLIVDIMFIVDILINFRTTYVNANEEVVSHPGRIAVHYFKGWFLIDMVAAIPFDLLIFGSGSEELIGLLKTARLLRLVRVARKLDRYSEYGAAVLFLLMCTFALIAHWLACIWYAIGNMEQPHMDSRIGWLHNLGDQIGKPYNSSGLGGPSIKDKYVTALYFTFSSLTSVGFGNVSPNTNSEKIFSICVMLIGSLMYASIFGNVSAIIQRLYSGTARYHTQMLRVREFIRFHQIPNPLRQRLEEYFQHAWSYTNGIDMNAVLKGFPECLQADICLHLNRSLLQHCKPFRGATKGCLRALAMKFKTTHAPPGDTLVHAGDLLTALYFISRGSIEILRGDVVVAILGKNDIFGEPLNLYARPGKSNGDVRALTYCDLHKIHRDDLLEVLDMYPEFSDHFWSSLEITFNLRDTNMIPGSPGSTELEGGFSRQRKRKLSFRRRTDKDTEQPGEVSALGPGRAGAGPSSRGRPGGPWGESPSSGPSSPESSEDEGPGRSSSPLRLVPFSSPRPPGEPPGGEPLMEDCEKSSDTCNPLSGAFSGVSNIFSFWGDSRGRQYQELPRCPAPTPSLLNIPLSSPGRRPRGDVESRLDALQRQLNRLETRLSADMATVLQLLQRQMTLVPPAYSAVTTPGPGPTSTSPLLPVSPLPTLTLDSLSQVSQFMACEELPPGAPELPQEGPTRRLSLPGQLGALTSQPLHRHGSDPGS

SMILES | hERG [µM]
O=C1c2c(Cl)cc(-c3noc(CN4CCNCC4)n3)cc2CN1Cc1ccc(OC(F)(F)F)cc1 [Example 1, 7-Chloro-5-(5-piperazin-1-ylmethyl-[1,2,4]oxadiazol-3-yl)-2-(4-trifluoromethoxybenzyl)-2,3-dihydroisoindol-1-one] | 10
O=C1c2c(Cl)cc(-c3noc(CN4CCNCC4)n3)cc2CN1Cc1ccc(Cl)cc1 [Example 2, 7-chloro-2-(4-chlorobenzyl)-5-(5-piperazin-1-ylmethyl-[1,2,4]oxadiazol-3-yl)-2,3-dihydroisoindol-1-one] | 14
Cc1cc(-c2noc(CN3CCNCC3)n2)cc2c1C(=O)N(Cc1ccc(OC(F)(F)F)cc1)C2 [Example 3, 7-methyl-5-(5-piperazin-1-ylmethyl-[1,2,4]oxadiazol-3-yl)-2-(4-trifluoromethoxy-benzyl)-2,3-dihydroisoindol-1-one] | 13
Cc1cc(-c2noc(CN3CCNCC3)n2)cc2c1C(=O)N(Cc1ccc(Cl)cc1)C2 [Example 4, 2-(4-chlorobenzyl)-7-methyl-5-(5-piperazin-1-ylmethyl-[1,2,4]oxadiazol-3-yl)-2,3-dihydroisoindol-1-one] | 8.9
Cc1cc(-c2noc(CN3C[C@@H]4C[C@H]3CN4)n2)cc2c1C(=O)N(Cc1ccc(OC(F)(F)F)cc1)C2 [Example 5, 5-[5-(2,5-diaza-bicyclo[2.2.1]hept-2-ylmethyl)-[1,2,4]oxadiazol-3-yl]-7-methyl-2-(4-trifluoromethoxybenzyl)-2,3-dihydroisoindol-1-one] | 17
Cc1cc(-c2noc(CN3CCNCC3)n2)cc2c1C(=O)N([C@@H](C)c1ccc(Cl)cc1)C2 [Example 6, 2-[(S)-1-(4-Chloro-phenyl)-ethyl]-7-methyl-5-(5-piperazin-1-ylmethyl-[1,2,4]oxadiazol-3-yl)-2,3-dihydro-isoindol-1-one] | 14
Cc1cc(-c2noc(CN3C[C@@H]4C[C@H]3CN4)n2)cc2c1C(=O)N([C@@H](C)c1ccc(Cl)cc1)C2 [Example 7, 2-[(S)-1-(4-Chloro-phenyl)-ethyl]-5-{5-[(1S,4S)-1-(2,5-diaza-bicyclo[2.2.1]hept-2-yl)methyl]-[1,2,4]oxadiazol-3-yl}-7-methyl-2,3-dihydro-isoindol-1-one] | 12
Cc1cc(-c2noc(CN3CCNC[C@H]3C)n2)cc2c1C(=O)N(Cc1ccc(Cl)cc1)C2 [Example 8, 2-(4-chloro-benzyl)-7-methyl-5-[5-(2-methyl-piperazin-1-ylmethyl)-[1,2,4]oxadiazol-3-yl]-2,3-dihydroisoindol-1-one] | 11
Cc1cc(-c2noc(CN3CCNC[C@@H]3C)n2)cc2c1C(=O)N(Cc1ccc(Cl)cc1)C2 [Example 9, 2-(4-chloro-benzyl)-7-methyl-5-[5-(2-methyl-piperazin-1-ylmethyl)-[1,2,4]oxadiazol-3-yl]-2,3-dihydroisoindol-1-one] | 11
Cc1cc(-c2noc(CN3CCNC(C)C3)n2)cc2c1C(=O)N(Cc1ccc(Cl)cc1)C2 (centres unmarked) [Example 10, 2-(4-chloro-benzyl)-7-methyl-5-[5-(3-methyl-piperazin-1-ylmethyl)-[1,2,4]oxadiazol-3-yl]-2,3-dihydroisoindol-1-one] | 11
CC1(C)CN(Cc2nc(-c3cc(Cl)c4c(c3)CN(Cc3ccc(OC(F)(F)F)cc3)C4=O)no2)CCN1 [Example 11, 7-chloro-5-[5-(3,3-dimethyl-piperazin-1-ylmethyl)-[1,2,4]oxadiazol-3-yl]-2-(4-trifluoromethoxy-benzyl)-2,3-dihydroisoindol-1-one] | 13
Cc1cc(-c2noc(C(C)N3CCNCC3)n2)cc2c1C(=O)N(Cc1ccc(OC(F)(F)F)cc1)C2 (centres unmarked) [Example 12, 7-Methyl-5-[5-(1-piperazin-1-yl-ethyl)-[1,2,4]oxadiazol-3-yl]-2-(4-trifluoromethoxy-benzyl)-2,3-dihydro-isoindol-1-one] | 17
Cc1cc(-c2noc(C(C)N3CCNCC3)n2)cc2c1C(=O)N(Cc1ccc(Cl)cc1)C2 (centres unmarked) [Example 13, 2-(4-Chloro-benzyl)-7-methyl-5-[5-(1-piperazin-1-yl-ethyl)-[1,2,4]oxadiazol-3-yl]-2,3-dihydro-isoindol-1-one] | 13
Cc1cc(-c2noc(C(C)N3CCNCC3)n2)cc2c1C(=O)N([C@@H](C)c1ccc(Cl)cc1)C2 (stereo partly drawn) [Example 14, 2-[(S)-1-(4-Chloro-phenyl)-ethyl]-7-methyl-5-[5-(1-piperazin-1-yl-ethyl)-[1,2,4]oxadiazol-3-yl]-2,3-dihydro-isoindol-1-one] | 11
